The source of these data is BindingDB's records for patent US12110286 (Cancer Research Technology, 2024).

The target in the assay is B-cell lymphoma 6 protein (Homo sapiens, UniProt P41182). As to the kind of experiment: HTRF In Vitro Assay. The method, then:
The % inhibition at each concentration was calculated by normalising FRET ratio to the appropriate high (DMSO with all reagents) and low (DMSO without BCL6) controls.

`Cn1c(=O)n(CCC(C)(C)O)c2cc(Nc3nc(N4CCC(Cn5cccn5)CC4)ncc3Cl)ccc21` [US12110286, Example 35zb] had an IC50 of 324 nM.
